In US12677848B2, “Stevia flavor compositions” (PURECIRCLE USA INC., priority 2019, dated 2026):

Tests used:
Assay type in all cases: in vivo, human
[1] = test system: consumer panel (company employees); assay: Sweetness perception threshold in neutral water (2-AFC); details: n = 30
Description: Therefore we selected 50 ppm of PCS-3028 as the recognition threshold concentration. [table] This is a re-evaluation of the recognition threshold concentration to follow methodology outlined in section 1.4.2 of the “Guidance for the Sensory Testing of Flavorings with Modifying Properties within the FEMA GRAS™ Program”.

[2] = test system: consumer panel (company employees); assay: Sweetness perception threshold in lemon poppy seed muffin (2-AFC); details: n = 30
Description: Additional threshold test data found for Lemon Poppy Seed Muffin provided in Appendix. [table] [table]

[3] = test system: consumer panel (company employees); assay: Sweetness perception threshold in puffed corn breakfast cereal (2-AFC)
Method: […] As recommended by the FEMA Sensory guidance document,—Guidance for the Sensory Testing of Flavorings with Modifying Properties, within the FEMA GRAS™ Program, 2013—the recognition threshold concentration was determined using 2-alternateve forced choice (2-AFC) methodology.
This is an evaluation of the recognition threshold concentration to follow methodology outlined in section 1.4.2 of the “Guidance for the Sensory Testing of Flavorings with Modifying Properties within the FEMA GRAS™ Program”.
Sample Preparation: The puffed corn cereal (with no added sugar or flavor) purchased from local stores and sprayed with aqueous sucrose solutions using a portable atomizer to create a fine mist while tumbling the dry cereal grains. All the samples were dried to remove the added water from the samples. About 3 g of cereal was portioned into appropriately labeled blind-coded plastic 2 oz soufflé cup with lids. Samples were served dry to all panelists.

[4] = 1.5% sucrose vs 30 ppm PCS-3028 in water
[5] = 1.5% sucrose vs 50 ppm PCS-3028 in water
[6] = 1.5% sucrose vs 70 ppm PCS-3028 in water
[7] = 4% sugar vs 70 ppm PCS3028 in muffins
[8] = 4% sugar vs 150 ppm PCS3028 in muffins
[9] = 4% sugar vs 250 ppm PCS3028 in muffins
[10] = Puffed Corn Cereal + vs + 250 ppm PCS-3028, n = 30

OC[C@H]1O[C@@](CO)(O[C@H]2O[C@H](CO)[C@@H](O)[C@H](O)[C@H]2O)[C@@H](O)[C@@H]1O [Sucrose]
% Frequency (sample named as sweeter) [1, 4]: 96.7%
PC (panelists naming the sample as sweeter) [1, 4]: 29
PC (panelists naming the sample as sweeter) [1, 5]: 21
Percent Frequency (sample named as sweeter) [1, 5]: 70.0%
% Frequency (sample named as sweeter) [1, 6]: 10%
PC (panelists naming the sample as sweeter) [1, 6]: 3
Frequency (sample named as sweeter) [2, 7]: 76.7%
PC (panelists naming the sample as sweeter) [2, 7]: 23
Frequency (sample named as sweeter) [2, 8]: 70%
PC (panelists naming the sample as sweeter) [2, 8]: 21
Frequency (sample named as sweeter) [2, 9]: 33.3%
PC (panelists naming the sample as sweeter) [2, 9]: 10
PC (panelists naming the sample as sweeter) ([3]; Puffed Corn Cereal + vs + 150 ppm PCS-3028, n = 30): 28
% Frequency (sample named as sweeter) ([3]; Puffed Corn Cereal + vs + 150 ppm PCS-3028, n = 30, listed as Sugar): 93.3%
% Frequency (sample named as sweeter) [3, 10]: 43.3%
PC (panelists naming the sample as sweeter) [3, 10]: 13
